Experimental data from PubChem BioAssay (NCI).
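Interpolation was linear, between the two tested concentrations surrounding the appropriate level; five concentrations were tested over 48 hours in 96-well plates. At the TGI there is no net growth.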

Tests used:
Test in all cases: NCI tumour cell line growth inhibition, 48 h
DLD-1 colon = system: DLD-1 colon
DMS 114 small cell lung = system: DMS 114 small cell lung
DMS 273 small cell lung = system: DMS 273 small cell lung
HOP-18 NSCLC = system: HOP-18 NSCLC
KM20L2 colon = system: KM20L2 colon
M19-MEL melanoma = system: M19-MEL melanoma
P388 leukemia = system: P388 leukemia
SN12K1 renal = system: SN12K1 renal
SNB-78 CNS = system: SNB-78 CNS

## CSc1nc2c(ncn2C2OC(CO)C(O)C(O)C2O)c(=O)[nH]1 (stereo unspecified)
DLD-1 colon
  TGI: > 100 µM
DMS 114 small cell lung
  TGI: > 100 µM
DMS 273 small cell lung
  TGI: > 100 µM
HOP-18 NSCLC
  TGI: > 100 µM
KM20L2 colon
  TGI: > 100 µM
M19-MEL melanoma
  TGI: > 100 µM
P388 leukemia
  TGI: > 100 µM
SN12K1 renal
  TGI: > 100 µM
SNB-78 CNS
  TGI: > 100 µM

## O=C1C2=C(CCC2)Nc2cccc3ncn1c23
DLD-1 colon
  TGI: > 100 µM
DMS 114 small cell lung
  TGI: > 100 µM
DMS 273 small cell lung
  TGI: > 100 µM
HOP-18 NSCLC
  TGI: 64.2 µM
KM20L2 colon
  TGI: > 100 µM
M19-MEL melanoma
  TGI: > 100 µM
SNB-78 CNS
  TGI: > 100 µM

## C=C1C(=O)C23C(O)CC4C5(C)CCCC4(C(O)OC5)C2C(OC(C)=O)CC1C3O (stereo unspecified)
DLD-1 colon
  TGI: 20.6 µM
DMS 114 small cell lung
  TGI: 22.2 µM
DMS 273 small cell lung
  TGI: 41.3 µM
HOP-18 NSCLC
  TGI: 30.4 µM
KM20L2 colon
  TGI: 21.2 µM
M19-MEL melanoma
  TGI: 30.7 µM
SNB-78 CNS
  TGI: 33.9 µM

## O=C(O)/C=C\C(=O)Nc1ccc(S(=O)(=O)c2ccc(NC(=O)/C=C\C(=O)O)cc2)cc1
DLD-1 colon
  TGI: > 100 µM
DMS 114 small cell lung
  TGI: > 100 µM
KM20L2 colon
  TGI: > 100 µM
M19-MEL melanoma
  TGI: > 100 µM
SNB-78 CNS
  TGI: > 100 µM

## COc1ccc(/C=N/n2c(C)nc3c(sc(=S)n3-c3ccccc3)c2=O)cc1
DLD-1 colon
  TGI: > 100 µM
HOP-18 NSCLC
  TGI: > 100 µM
M19-MEL melanoma
  TGI: > 100 µM
